Laboratory results reported in patent publication US20130072899A1, “Pharmaceutical Formulations for Iontophoretic Delivery of Gallium” (Nitric BloTherapeutics, Inc., priority 2008, published 2013).

Experiments:
[1] = 25° C., 0.01M; cited from earlier work
[2] = Effect of pH on skin permeability (tritiated water permeation, Franz cells); format: in vitro ADME, human; settings: 70 h passive permeation

average radioactive count in the receiver compartment ([2]; pH 2) [DPM/mL] | average radioactive count in the receiver compartment ([2]; pH 5) [DPM/mL] | SMILES | Log β (stability constant) [1]
 |  | [Ga+3].[OH-].[OH-].[OH-] [Ga(OH)3] | −11.0
 |  | [OH][Ga-]([OH])([OH])[OH] [Ga(OH)4^−] | −15.66
55860±25106 | 60557±20376 | [3H]O[3H] [tritiated water, Tritiated water] | 
 |  | [OH][Ga+][OH] [Ga(OH)2^+] | −6.6
 |  | O=C([O-])CC(O)(CC(=O)[O-])C(=O)[O-].[Ga+3] [Ga citrate] | 10.02
 |  | [OH][Ga+2] [GaOH^++] | −2.9
